Source: PubChem BioAssay (NCI)
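Five compound concentrations were applied to cells in 96-well plates for 48 hours; endpoints were derived by simple linear interpolation of the resulting dose-response curve. The concentration for 50% growth inhibition is given as GI50. At the TGI there is no net growth.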

Tests used:
Assay in all cases: NCI anticancer screen, dose series, 48 h
[1] = test system: A498 renal
[2] = test system: ACHN renal
[3] = test system: BT-549 breast
[4] = test system: CAKI-1 renal
[5] = test system: CCRF-CEM leukemia
[6] = test system: COLO 205 colon
[7] = test system: DU-145 prostate
[8] = test system: HCC-2998 colon
[9] = test system: HCT-15 colon
[10] = test system: HL-60(TB) leukemia
[11] = test system: HOP-62 NSCLC
[12] = test system: HS 578T breast
[13] = test system: HT29 colon
[14] = test system: K-562 leukemia
[15] = test system: KM12 colon
[16] = test system: MDA-MB-231 breast
[17] = test system: MDA-MB-435
[18] = test system: MOLT-4 leukemia
[19] = test system: NCI-H226 lung
[20] = test system: OVCAR-3 ovarian
[21] = test system: OVCAR-5 ovarian
[22] = test system: PC-3 prostate
[23] = test system: RPMI-8226 leukemia
[24] = test system: RXF 393 renal
[25] = test system: SK-MEL-2 melanoma
[26] = test system: SK-MEL-28 melanoma
[27] = test system: SK-MEL-5 melanoma
[28] = test system: SN12C renal
[29] = test system: SNB-19 CNS
[30] = test system: SNB-75 CNS
[31] = test system: SW-620 colon
[32] = test system: TK-10 renal
[33] = test system: UO-31 renal

Molecule Nc1cc(-c2c[nH]c3ccc(F)cc23)nc2cc(-c3c[nH]c4ccc(F)cc34)nn12 has a GI50 [1] of 1.66 µM, a TGI [1] of 3.25 µM and a GI50 [2] of 1.88 µM. It also gave a TGI [2] of 3.46 µM, a GI50 [3] of 13.3 µM and a TGI [3] of 34.9 µM. For the same molecule, the GI50 [4] was 2.03 µM, the TGI [4] was 5.29 µM and the GI50 [5] was 3.13 µM. For the same molecule, the TGI [5] was > 100 µM, the GI50 [6] was 1.74 µM and the TGI [6] was 3.15 µM. The GI50 [7] was 2.21 µM, the TGI [7] was 4.73 µM and the GI50 [8] was 1.95 µM. The TGI [8] was 3.47 µM, the GI50 [9] was 1.79 µM and the TGI [9] was 3.69 µM. For the same molecule, the GI50 [10] was 1.94 µM, the TGI [10] was 5.36 µM and the GI50 [11] was 2.06 µM. For the same molecule, the TGI [11] was 5.85 µM, the GI50 [12] was 2.35 µM and the TGI [12] was 5.71 µM. It also gave a GI50 [13] of 1.8 µM, a TGI [13] of 3.31 µM and a GI50 [14] of 2.92 µM. The TGI [14] was > 100 µM, the GI50 [15] was 2 µM and the TGI [15] was 4.26 µM. It also gave a GI50 [16] of 1.85 µM, a TGI [16] of 3.49 µM and a GI50 [17] of 1.74 µM. The TGI [17] was 3.39 µM, the GI50 [18] was 2.33 µM and the TGI [18] was 7.29 µM. It also gave a GI50 [19] of 2.28 µM, a TGI [19] of 5.52 µM and a GI50 [20] of 1.75 µM. For the same molecule, the TGI [20] was 3.19 µM, the GI50 [21] was 1.83 µM and the TGI [21] was 3.77 µM. It also gave a GI50 [22] of 2.11 µM, a TGI [22] of 5.31 µM and a GI50 [23] of 3.05 µM. The TGI [23] was > 100 µM, the GI50 [24] was 1.88 µM and the TGI [24] was 3.48 µM. The GI50 [25] was 14.6 µM, the TGI [25] was 35.3 µM and the GI50 [26] was 1.83 µM. For the same molecule, the TGI [26] was 3.33 µM, the GI50 [27] was 1.84 µM and the TGI [27] was 3.28 µM. The GI50 [28] was 1.92 µM, the TGI [28] was 3.73 µM and the GI50 [29] was 3.03 µM. For the same molecule, the TGI [29] was 8.97 µM, the GI50 [30] was 16.3 µM and the TGI [30] was 36.6 µM. The GI50 [31] was 1.78 µM, the TGI [31] was 3.3 µM and the GI50 [32] was 2.22 µM. For the same molecule, the TGI [32] was 4.19 µM, the GI50 [33] was 1.68 µM and the TGI [33] was 3.45 µM.
